The source of these data is ChEMBL document CHEMBL1149441, “Cyclopropylamino acid amide as a pharmacophoric replacement for 2,3-diaminopyridine. Application to the design of novel bradykinin B1 receptor antagonists” (J Med Chem, 2006).

A value given as a limit tells only on which side of the number the result lay.

Data set [1] is described as follows: Half life in iv dosed rat. The format is ADME, organism-based. The settings on record: in vivo.
The next data set has as its target T1, B2 bradykinin receptor (Homo sapiens, UniProt P30411).
T1 sequence (P30411 whole entry): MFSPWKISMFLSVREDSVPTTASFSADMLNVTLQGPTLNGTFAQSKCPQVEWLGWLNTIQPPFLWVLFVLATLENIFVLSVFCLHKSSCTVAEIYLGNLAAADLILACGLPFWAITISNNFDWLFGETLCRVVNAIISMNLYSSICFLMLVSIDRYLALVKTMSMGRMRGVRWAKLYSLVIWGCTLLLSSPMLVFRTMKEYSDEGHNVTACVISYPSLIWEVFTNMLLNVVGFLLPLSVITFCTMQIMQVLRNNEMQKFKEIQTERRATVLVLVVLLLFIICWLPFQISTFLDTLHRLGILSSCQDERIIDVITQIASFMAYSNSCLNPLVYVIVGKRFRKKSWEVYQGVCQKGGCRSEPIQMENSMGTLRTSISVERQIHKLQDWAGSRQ
Nature of the data set: Binding affinity to bradykinin B2 receptor.

The next data set has as its target T2, B1 bradykinin receptor (Homo sapiens, UniProt P46663).
T2 sequence (P46663 whole entry): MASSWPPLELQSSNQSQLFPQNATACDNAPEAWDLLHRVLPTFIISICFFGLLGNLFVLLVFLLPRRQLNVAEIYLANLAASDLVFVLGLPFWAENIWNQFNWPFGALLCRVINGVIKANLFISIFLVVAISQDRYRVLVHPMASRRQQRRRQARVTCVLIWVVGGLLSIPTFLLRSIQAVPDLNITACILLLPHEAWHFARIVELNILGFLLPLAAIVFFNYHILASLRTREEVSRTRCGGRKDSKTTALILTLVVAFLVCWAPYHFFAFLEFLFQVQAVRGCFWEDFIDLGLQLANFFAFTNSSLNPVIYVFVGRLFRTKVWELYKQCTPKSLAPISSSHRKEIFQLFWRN
In words: Binding affinity to human bradykinin B1 receptor expressed in CHO cells. It is filed as cell-based.

Data set [2] is described as follows: Clearance in iv dosed rat. The settings on record: in vivo. The format is ADME, organism-based.
Data set [3] is described as follows: Oral bioavailability in rat. It is filed as ADME, organism-based. The settings on record: in vivo.

Broadly, the half-life is the time in which the quantity being followed falls by half. The Ki is the dissociation constant of the complex between target and ligand, obtained from inhibition or displacement. Low readings indicate higher affinity, high ones lower affinity. For the molecule `COC(=O)c1ccccc1-c1ccc(CNc2ncccc2NC(=O)CC(F)(F)F)cc1`, the half-life in data set [1] is 0.15 h. On B2 bradykinin receptor, the Ki is more than 10 µM.
For the molecule `COC(=O)c1ccccc1-c1ccc(CNC(=O)C2(NC(=O)c3cncc(C(F)(F)F)c3)CC2)cc1`, the Ki is more than 10 µM at B2 bradykinin receptor and 0.0018 µM on B1 bradykinin receptor.
The clearance is the volume of plasma or blood freed of the substance per unit of time. A high value points to efficient removal. The term bioavailability denotes the share of a dose that reaches the circulation, judged against a reference dose that is usually intravenous. A lower bioavailability goes with little systemic uptake. For the molecule `COC(=O)c1ccccc1-c1ccc(CNC(=O)C2(NC(=O)CC(F)(F)F)CCCCC2)cc1`, in data set [1], the half-life is 12 h. Further, the Ki at B2 bradykinin receptor is more than 10 µM; on B1 bradykinin receptor it was 0.752 µM. In data set [2], the clearance was 2.6 mL/min/kg. The same molecule displayed a bioavailability in data set [3] of 25%.
For `COC(=O)c1ccccc1-c1ccc(CNC(=O)C2(NC(=O)CC(F)(F)F)CCCC2)cc1`, the inhibition constant Ki is more than 10 µM at B2 bradykinin receptor and 0.462 µM on B1 bradykinin receptor.
Take `COC(=O)c1ccccc1-c1ccc(CNC(=O)[C@@H](C)NC(=O)CC(F)(F)F)cc1`: the inhibition constant (Ki) at B2 bradykinin receptor is more than 10 µM; on B1 bradykinin receptor it was 1.58 µM.
In the case of `COC(=O)c1ccccc1-c1ccc(CNC(=O)C(C)(C)NC(=O)CC(F)(F)F)cc1`, the half-life in data set [1] was 6.6 h. Besides, the Ki at B2 bradykinin receptor is more than 10 µM. For the same molecule, in data set [2], the clearance was found to be 4.2 mL/min/kg. For the same molecule, the bioavailability in data set [3] is 35%.
Molecule `COC(=O)c1ccccc1-c1ccc(CNC(=O)C2(NC(=O)CC(F)(F)F)CC2)cc1` gave a half-life in data set [1] of 9.5 h. Moreover, on B2 bradykinin receptor, the Ki is more than 10 µM. The molecule also gave a clearance in data set [2] of 9.3 mL/min/kg. In addition, in data set [3], the bioavailability is 26%.
Consider `COC(=O)c1ccccc1-c1ccc(CNC(=O)C2(NC(=O)c3cncnc3)CC2)cc1`, for which the Ki on B2 bradykinin receptor is more than 10 µM; on B1 bradykinin receptor, 0.0255 µM.
The corresponding values for `COC(=O)c1ccccc1-c1ccc(CNC(=O)CNC(=O)CC(F)(F)F)cc1` are more than 10 µM and 52 µM.
The corresponding values for `COC(=O)c1ccccc1-c1ccc(CNC(=O)C2(NC(=O)CC(F)(F)F)CCC2)cc1` are more than 10 µM and 0.119 µM.
For the molecule `COC(=O)c1ccccc1-c1ccc(CNC(=O)[C@H](C)NC(=O)CC(F)(F)F)cc1`, the inhibition constant Ki on B2 bradykinin receptor is more than 10 µM; at B1 bradykinin receptor, more than 50 µM.
